# How the values were obtained:
# HCT116 MTAP Null tumors = assay: Contralateral tumor model, tumor SDMA ELISA, MTAP-deleted tumors; assay type: in vivo, mouse; details: daily for 4 d
# Protocol: (§1) Mice were implanted contralaterally on their flanks with parental and MTAP-deleted HCT116 cells such that each mouse would carry one WT and one MTAP-deleted tumor (Fig. 4A). This design eliminates variance in compound exposures between groups and allows direct assessment of MTAP status impact on compound effects. […] Four hours post the fourth dose, tumors were analyzed for SDMA content by ELISA. […] This confirms the MTA-selective action of AM-9934 in the tumor setting.
# (§2) HCT116 colon carcinoma WT and MTAP^−^/^− isogenic cells were determined to be free of contamination with mycoplasma as well as a panel of murine viral pathogens in addition to being authenticated. Mice were inoculated s.c. with 2 × 10^6 HCT116 WT cells on the left flank and 2 × 10^6 HCT116 MTAP^−^/^− cells on the right flank in 33% Matrigel. Mice were enrolled once both tumors reached 250 to 500 mm^3 and randomized into vehicle vs. PRMT5i treated groups (N = 3). Vehicle or PRMT5i treatment started on day 14 postimplantation orally and treated once daily for 4 d. […]
# (§3) Preparation of protein lysates from snap-frozen tumors was carried out as follows: samples were collected in a Covaris Tissue Tube (520001 TT1) to be used in conjunction with the CryoPrep. […] The protein concentration of each lysate was then determined using a BCA assay. […]
# PRMT5:MEP50 complex = biological target: T1, PRMT5:MEP50 complex (Homo sapiens, UniProt O14744); assay: Thermal Stability Assay (TSA), thermal shift; assay type: binding; details: for stabilization of the complex by cofactor alone: cofactor added to apo complex (10 µM SIN, 10 µM SAM, or 5 µM MTA)
# T1 construct: FLAG (N); purchased Reaction Biology Corp HMT-2-148; host or cells: insect cells (baculovirus)
# Protocol: 0.1 µM PRMT5:MEP50 complex was incubated with compounds in a buffer consisting of 50 mM Tris-HCl pH 8.0, 50 mM NaCl, 1 mM TCEP, and 4xSypro Orange (Thermo Fisher, S-6650) in the absence or presence of cofactor (10 µM SIN, 10 µM SAM, or 5 µM MTA) and read on a StepOne™ Real-Time PCR machine (Applied Biosystems™) using a temperature ramp of 0.5 °C/min over a range of 25 to 95 °C.
# [1] = system: Parental HCT116 cells (MTAP WT); assay: Cell viability (CellTiter-Glo), parental cells; assay type: cell-based; details: Homo sapiens, read-out: IC50, cell viability
# Protocol: (§4) Parental (HD PAR-034) and MTAP^−^/^− (HD R02-033) colorectal cancer HCT116 cell lines were obtained from Horizon Discovery and maintained in RPMI1640 supplemented with 10% fetal bovine serum and antibiotics or in McCoy 5A supplemented with 10% fetal bovine serum (for mouse experiments). Other cell lines were obtained from ATCC and maintained according to instructions. Effects of compounds on cell viability were assessed using the CellTiter-Glo Kit from Promega (G7571) after 6 d of compound incubation and quantified using an EnVision® 2105 multimode plate reader (PerkinElmer) in luminescence mode.
# in vitro = details: human, primary bone marrow-derived megakaryocytes
# [2] = system: MTAP-deleted HCT116 cells; assay: SDMA high-content imaging assay, MTAP-deleted cells; assay type: cell-based; details: Homo sapiens, HCT-116, 72 h, read-out: IC50, reduction of cellular SDMA
# Protocol: (§5) Cells were seeded into 96-well plates and incubated with compound for 3 d before fixing with 4% PFA (in 1× PBS) for 15 min. Cells were then washed once with Wash Buffer (1× PBS + 1% BSA + 0.2% Triton X-100), 100 µL/well for 15 min before blocking for 1 h Using Licor Odyssey blocking reagent ([…]) (100 µL/well). After three washes in Wash Buffer, cells were then stained for 2 h with anti-SDMA antibody (1:2,000 in Wash Buffer), washed three times in Wash Buffer, stained for 1 h in the dark using anti-rabbit Alexa-488 (1:2,000 in Wash Buffer) and Hoechst 33342 (1:5,000), followed by three washes in Wash Buffer before quantifying on a Cellomics Array Scan image system.
# [3] = system: MTAP-deleted HCT116 cells; assay: Cell viability (CellTiter-Glo), MTAP-deleted cells; assay type: cell-based; details: Homo sapiens, read-out: IC50, cell viability
# Protocol: as §4
# [4] = system: arginine-, lysine-, and DNA-methyltransferases; assay: Methyltransferase panel profiling (BPS Bioscience): other methyltransferases; details: tested up to 10 µM
# [5] = system: Parental HCT116 cells (MTAP WT); assay: SDMA high-content imaging assay, parental cells; assay type: cell-based; details: Homo sapiens, HCT-116, 72 h, read-out: IC50, reduction of cellular SDMA
# Protocol: as §5
# HCT116 MTAP WT tumors = assay: Contralateral tumor model, tumor SDMA ELISA, WT tumors; assay type: in vivo, mouse; details: parental (MTAP WT) tumors, daily for 4 d
# Protocol: as §1, §2, §3
# [6] = system: 24-cell line panel of MTAP WT and MTAP-deleted cell lines; assay: Cell viability across 24-cell line panel; assay type: cell-based; details: MTAP WT vs MTAP-deleted
# Protocol: as §4
# [7] = Blood/tumor compound concentrations in contralateral tumor model; assay type: in vivo, mouse; details: 4 h post last dose, 50-200 mg/kg
# Protocol: HCT116 colon carcinoma WT and MTAP^−^/^− isogenic cells were determined to be free of contamination with mycoplasma as well as a panel of murine viral pathogens in addition to being authenticated. Mice were inoculated s.c. with 2 × 10^6 HCT116 WT cells on the left flank and 2 × 10^6 HCT116 MTAP^−^/^− cells on the right flank in 33% Matrigel. Mice were enrolled once both tumors reached 250 to 500 mm^3 and randomized into vehicle vs. PRMT5i treated groups (N = 3). Vehicle or PRMT5i treatment started on day 14 postimplantation orally and treated once daily for 4 d. Blood was collected at 4 h post–last dose (day 17 postimplantation) for pharmacokinetic analysis in Microtainer tubes containing lithium heparin. Blood was centrifuged at 7,000 rpm at 4 °C for 7 min. Tumors from both sides were also collected and snap-frozen for pharmacokinetic analysis and SDMA ELISA. Plasma and tumors were collected and stored at −80 °C until analysis.
# MTAP null tumors = system: MTAP null tumors; parameters: method as in PMID 39282709; details: patients with MTAP null tumors; cited from earlier work
# T1 sequence (O14744 2-637 limits assumed): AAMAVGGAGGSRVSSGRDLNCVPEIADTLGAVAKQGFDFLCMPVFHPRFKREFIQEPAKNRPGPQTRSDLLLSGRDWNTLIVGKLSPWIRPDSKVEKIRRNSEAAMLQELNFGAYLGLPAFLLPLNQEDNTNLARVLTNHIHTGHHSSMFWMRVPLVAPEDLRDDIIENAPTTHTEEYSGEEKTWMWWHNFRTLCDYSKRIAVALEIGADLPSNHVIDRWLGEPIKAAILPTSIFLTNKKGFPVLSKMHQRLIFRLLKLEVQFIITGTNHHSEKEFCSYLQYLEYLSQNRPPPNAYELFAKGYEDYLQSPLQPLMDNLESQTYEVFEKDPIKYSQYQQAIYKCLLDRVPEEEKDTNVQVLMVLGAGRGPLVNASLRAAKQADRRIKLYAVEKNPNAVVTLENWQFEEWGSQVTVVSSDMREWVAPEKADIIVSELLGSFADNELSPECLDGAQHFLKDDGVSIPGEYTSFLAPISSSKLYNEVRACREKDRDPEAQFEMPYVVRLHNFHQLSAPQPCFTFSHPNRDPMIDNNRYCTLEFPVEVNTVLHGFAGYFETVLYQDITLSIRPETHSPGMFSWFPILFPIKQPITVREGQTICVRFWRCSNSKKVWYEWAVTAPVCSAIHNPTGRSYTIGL
# T1 sequence (Q9BQA1 2-342 partner limits assumed): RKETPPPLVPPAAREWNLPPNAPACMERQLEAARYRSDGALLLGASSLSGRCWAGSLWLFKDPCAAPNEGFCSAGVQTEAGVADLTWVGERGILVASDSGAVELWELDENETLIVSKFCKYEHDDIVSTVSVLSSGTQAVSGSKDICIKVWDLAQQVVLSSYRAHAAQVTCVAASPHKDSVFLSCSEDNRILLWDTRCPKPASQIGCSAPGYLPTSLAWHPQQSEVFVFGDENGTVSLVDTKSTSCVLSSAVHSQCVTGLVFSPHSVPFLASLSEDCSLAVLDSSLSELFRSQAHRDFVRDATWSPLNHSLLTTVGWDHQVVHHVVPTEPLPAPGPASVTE
smiles,measurement,setting,value
Cc1cc2cc(C(=O)N(Cc3ccc(C(F)(F)F)cn3)CC(C)C)ccc2nc1N [AM-9934],suppression of tumor SDMA levels (in words),HCT116 MTAP Null tumors,all three doses reached significant levels of SDMA suppression
same,stabilization in the presence of MTA,"PRMT5:MEP50 complex; MTA-bound complex, compound 0.1 µM",9.3 K
same,IC50,"[1]; HCT-116, […]",4100 nM
same,IC50,in vitro,3100 nM
same,IC50,[2],9.2 nM
same,IC50,"[3]; HCT-116, […]",160 nM
same,inhibitory activity toward the other tested methyltransferases,[4],No significant inhibitory activity
same,IC50,[5],143 nM
same,suppression of tumor SDMA levels (in words),HCT116 MTAP WT tumors,insignificant at lower doses
same,discrimination of viability potency by MTAP status,[6],significantly higher potency toward MTAP-deleted cell lines
same,exposures (blood/tumor compound concentrations),[7],exposures increased with dose
Nc1nc2cnc(C(=O)N3CCOC[C@@H]3c3ccc(C(F)(F)F)cc3)cc2c2c1COC2 [AMG 193],antitumor responses in patients,MTAP null tumors,initial antitumor responses
O=C(NC[C@H](O)CN1CCc2ccccc2C1)c1cc(NC2COC2)ncn1 [EPZ015666],stabilization of the MTA-bound complex,"PRMT5:MEP50 complex; MTA-bound complex, compound 10 µM",no stabilization
same,stabilization of the SAM-bound complex,"PRMT5:MEP50 complex; SAM-bound complex, compound 10 µM",showed an interaction
same,stabilization of the SIN-bound complex,"PRMT5:MEP50 complex; SIN-bound complex, compound 10 µM",showed an interaction
same,IC50,"[1]; HCT-116, parental HCT116, 6 d incubation",890 nM
same,IC50,in vitro,360 nM
same,IC50,"[2]; MTAP-deleted HCT116, 3 d incubation",4.3 nM
same,IC50,"[3]; HCT-116, MTAP-deleted HCT116, 6 d incubation",600 nM
same,IC50,"[5]; parental HCT116, 3 d incubation",9.6 nM
same,discrimination of viability potency by MTAP status,[6],did not significantly discriminate
CC(=O)N1CCC(Nc2cc(C(=O)NC[C@H](O)CN3CCc4ccccc4C3)ncn2)CC1 [GSK3326595],suppression of tumor SDMA levels (in words),HCT116 MTAP Null tumors,marked suppression
same,suppression of tumor SDMA levels (in words),HCT116 MTAP WT tumors,marked suppression
"CSC[C@H]1O[C@@H](n2cnc3c(N)ncnc32)[C@H](O)[C@@H]1O [MTA, methylthioadenosine]",stabilization of the complex by cofactor alone,PRMT5:MEP50 complex,< 0.5 K
"C[S+](CC[C@H](N)C(=O)[O-])C[C@H]1O[C@@H](n2cnc3c(N)ncnc32)[C@H](O)[C@@H]1O (some centres unmarked) [SAM, S-Adenosyl methionine]",stabilization of the complex by cofactor alone,PRMT5:MEP50 complex,< 0.5 K
"Nc1ncnc2c1ncn2[C@@H]1O[C@H](C[C@@H](N)CC[C@H](N)C(=O)O)[C@@H](O)[C@H]1O [SIN, sinefungin]",stabilization of the complex by cofactor alone,PRMT5:MEP50 complex,< 0.5 K
